Data taken from patent US20090233973A1, “EPOTHILONE DERIVATIVES FOR THE TREATMENT OF MULTIPLE MYELOMA” (priority 2002, published 2009).

Tests used:
Assay type in all cases: cell-based, human
[1] = system: MM cells; experiment: Proliferation ([3H]-thymidine) and cell viability (MTS) assays
Procedure: RPMI 8226 and U266 human MM cell lines can be obtained from the American Type Culture Collection (ATCC) of Rockville, Md. Patient derived MM cells are purified from patient BM samples, as described by Y. T. Tai, G. Teoh, Y. Shima, et al in J. Immunol. Methods 235:11, 2000. All human MM cell lines are cultured in RPMI-1640 media (Sigma Chemical, St. Louis, Mo.), containing 10% fetal bovine serum (FBS), 2 mmol/L L-glutamine (L-glut, GIBCO, Grand Island, N.Y.), 100 U/mL penicillin and […] streptomycin (P/S, GIBCO). MM patient cells are >95% CD38+, CD45RA−. […]
MM cells are first starved for 12 h in RPMI-1640 media containing […], and then plated into 96-well microtiter plates (Costar, Cambridge, Mass.), in the presence of drug or DMSO control. […] Proliferation is measured by the incorporation of [^3H]-thymidine (NEN Products, Boston, Mass.). Specifically, cells are pulsed with [^3H]-thymidine (0.5 μCi/well) for the last 6 h of 48 h cultures, harvested onto glass filters with an automatic cell harvester (Cambridge Technology, Cambridge, Mass.), and counted using a LKB Betaplate scintillation counter (Wallac, Gaithersburg, Md.). […] Cells are exposed to the MTS for the last 2 h of 48 h cultures, and absorbance is measured using an ELISA plate reader (Molecular Devices Corp., Sunnyvale, Calif.) at OD of 570 nm.

[2] = system: MM cells; experiment: Cell cycle analysis (propidium iodide, flow cytometry)
Procedure: MM cells (1×10^6 cells) are cultured in the presence of Epothilone B or DMSO control for 24, 48 and 72 h. Cells are then washed with phosphate buffered saline (PBS), fixed with 70% ethanol, and treated with RNAse (Sigma). Cells are next stained with propidium iodide (PI, 5 μg/mL), and the cell cycle profile is determined using the M software on an Epics flow cytometer (Coulter Immunology, Hialeah, Fla.).

[3] = system: MM.1S cells; experiment: Proliferation of MM cells in a modified Boyden chamber transwell co-culture system with BMSCs; conditions: 48 h
Procedure: Proliferation is measured in a modified Boyden chamber transwell system, using 24-well plates with a […] pore size inserts (Costar). BMSCs (4×10^4 cells/well) are plated in the lower chamber, starved, and incubated in an epothilone as described above. MM cells (20×10^4 cells/ml) are then placed in the upper chamber (insert), and [^3H]-thymidine uptake in the individual chambers is measured at 48 h as described above.
MM.1S cells are placed in the upper chamber of a transwell co-culture system in order to preclude direct contact between MM cells and BMSCs, but nonetheless allow for diffusion of humoral factors. Despite the lack of contact between the two cell types, uptake of [^3H]-dT by MM.1S cells incubated with BMSCs is increased by 2.2-fold (p<0.0001) at 48 h.

SMILES: C/C(=C\c1csc(C)n1)[C@@H]1C[C@@H]2O[C@]2(C)CCC[C@H](C)[C@H](O)[C@@H](C)C(=O)C(C)(C)[C@@H](O)CC(=O)O1 [epothilone B]
- growth and survival of myeloma cells [1]: directly inhibit the growth and survival of myeloma cells
- cell cycle effect / apoptosis [2]: induces G2M arrest in MM cells with subsequent apoptosis
- proliferation of MM.1S cells ([3H]-dT uptake) [3]: reduces proliferation of MM.1S cells
